Results on 4 compounds are retold here after article PMC2652713, “Molecular Blocking of CD23 Supports Its Role in the Pathogenesis of Arthritis” (PLoS ONE, 2009).

Assay [1] concerns human CD23+ monocyte-derived macrophages. The experiment in a line: Nitrite (NO) generation by CD23-activated human macrophages, Griess reaction. The format is cell-based. The conditions noted are these: for iNOS-mediated NO generation: pre-incubation prior to CD23-mediated activation, mean±s.d. of 7 donors (Figure 2C). The procedure: Figure 2 Inhibition of CD23-mediated activation of iNOS pathway in human macrophages by p30A. Human CD23^+ monocyte-derived macrophages were incubated with cross-linking CD23-McAb (20 µg/ml) alone or following 1 h pre-incubation with 10 µg/ml of various peptides. […] Expression of iNOS mRNA was compared to HPRT mRNA levels. (B) Inhibition of NO generation from human activated macrophages by synthetic peptides. Cell supernatants were collected 72 h following cell cultures and levels of nitrites were determined. […] Results are expressed as mean of 3 distinct donor cell preparations (SEM<20%). (C) Inducible NOS-mediated NO generation in human macrophages is decreased following pre-incubation with p30A or L-NIL prior to CD23-mediated activation. Results are expressed as mean±s.d. of 7 distinct donor cell preparations.
(§1) Monocytes or macrophages were activated through CD23 pathway: while monocytes/macrophages from RA patients express CD23, monocytes from healthy donors must be pre-activated to express surface CD23 as described. This pre-activation was obtained by incubation of healthy monocytes with recombinant human IL-4 (20 ng/ml) during 48 h at 37°C; After washing, all cell populations were tested by flow cytometry for their surface CD23 expression (>80% CD23^+) and then incubated in the presence of cross-linking CD23-MAb (clones 135 or DM2, IgG1k, 20 µg/ml) during 48–72 h, or IgE and anti-IgE as described, [17]. When indicated, peptides were added to the cells 2 h prior to their activation. Cells supernatants were then analyzed for their nitric oxide content (see below) and for the presence of cytokines: levels of TNF-α and IL-6 were determined in duplicates for each sample by a specific ELISA (R&D, Paris, France) while levels of IL-1β, IL-8 and IL-10 was determined using FlowCytomix Human Th1/Th2 Kit as recommended (Bender Medsystems, Vienna, Austria).
Culture supernatants (72 h) were assayed for the stable end-product of NO, NO2 ^− using the Griess reaction modified as detailed elsewhere. Inhibitory analog of L-arginine, L-NIL (N(6)-(1-iminoethyl)-L-lysine/2HCl, Coger SA, Paris, France) was used to inhibit iNOS-mediated NO generation. This method gave a sensitivity limit of 0.2 µM if low NO2 ^− medium (DMEM) was used. Total RNA was isolated as above from peritoneal macrophages. Reverse transcription-PCR was performed with an automatic thermal cycler (iCycler, Biorad) using the following specific primers: iNOS mRNA sense (5′-[…]-3′, exon 8) and iNOS mRNA antisense (5′-[…]-3′, exon 11). Hypoxanthine phosphoribosyltransferase (HPRT) mRNA sense (5′-[…]-3′) and HPRT mRNA antisense (5′-[…]- 3′) primers were used as controls. The iNOS messenger is represented by a 371-bp band, whereas a 496-bp band indicates the HPRT messenger.
For orientation: Griess reagent forms a coloured azo dye with nitrite.

Another assay concerns iNOS. The conditions noted are these: cited from earlier work. The source says: Upon acquisition of CD23 surface expression, human cells may be activated using its biological ligands (e.g. IgE/antigen) or cross-linking with a specific anti-CD23 McAb, [16]. […] To confirm the ability of p30A to inhibit CD23-mediated signaling in human macrophages, we pretreated cells with purified peptides prior to their activation by McAb. Synthetic p30A reduced the levels of inducible nitric oxide syntha ...

The subject of assay [2] is peritoneal macrophages of AIA rats. The experiment in a line: Ex vivo cytokine release from peritoneal macrophages of treated AIA rats, ELISA. The format is in vivo, rat, Female Lewis. The conditions noted are these: treatment after onset of symptoms (AIA+p30A, 10 mg/rat; HC 30 mg/rat); cells collected 50 days post-immunization; 48 h culture; 4 rats.
Description: AIA rats were treated either after (AIA+p30A) or before (p30A+AIA) the onset of symptoms. Treatment consisted of p30A (10 mg/rat) or hydrocortisone (HC, 30 mg/rat). Rat peritoneal macrophages were collected following 50 days post-immunization, washed and re-incubated in culture medium alone. Cell supernatants were collected 48 h later and cytokine levels were quantified. Macrophages from healthy rats were also incubated in similar conditions. Values are mean±s.d. of cells from 4 different rats.
Adjuvant arthritis was induced in six week-old animals by subcutaneous injection at the base of the tail of 300 µl containing 1.8 mg of inactivated Mycobacterium butyricum (Difco Laboratories, Detroit, MI) diluted in emulsion of 8 ml Vaseline, 1 ml polysorbate 80, and 1 ml PBS (Phosphate Buffer Saline, Eurobio). Rats were boosted one week later following the same procedure. Observation was conducted for up to 50 days following immunization for clinical signs of arthritis. Rats were divided in different groups of 8 rats. Groups were treated with five injections (every 2 days) of either p30A (10, 50 or 100 mg in a PBS solution), pCtl, hydrocortisone (Sigma Aldrich) or PBS solution. Injections were initiated two days after the appearance of first arthritic symptoms (therapeutic) or on the first day of immunization (preventive). […] Rats were sacrificed 50 days after AIA induction. Peritoneal macrophages were collected and incubated in culture medium alone for 48 h. Quantification of TNF-α and IL-1β in rat cell supernatants was performed using appropriate ELISA kits and according to manufacturer's recommendations (Biosource, Montrouge, France).
Assay [3] relates to healthy human PBL-derived macrophages. Put plainly: Inflammatory mediator release from healthy human PBL-derived macrophages. The format is cell-based. The conditions noted are these: mean±s.d. The procedure: Figure 4 Inhibition of inflammatory mediator generation from healthy human PBL-derived macrophages by p30A. Decreased levels of TNF-α (A), IL-6 (B), IL-1β, IL-8 and IL-10 (C) were detected in CD23-activated cells after incubation with p30A. […] Values are mean±s.d. of cells from 5 (IL-6, TNF-α) or 2 (IL-1β, IL-8, IL-10) different donors.
as §1

The subject of assay [4] is adjuvant-induced arthritis in rats. Put plainly: Adjuvant-induced arthritis (AIA) clinical score in rats. The conditions noted are these: AIA rats; pCtl 100 mg/rat. The class given is in vivo, rat, Female Lewis. On the procedure: Figure 6 Inhibition of in vitro and in vivo inflammatory responses in rats by p30A peptide. (A) Rat peritoneal macrophages were activated via CD23 antigens with/without p30A, L-NIL or pCtl. Cell supernatants were collected 48 h later and nitrite levels were quantified. Values are mean±s.d. of cells from 3 different rats. (B) Cumulative clinical score/rat obtained following 50 days post-immunization in all groups. AIA rats were treated either after or before (d0) the onset of symptoms. Treatment consisted of p30A, hydrocortisone (HC, 30 mg/rat)) or pCtl (100 mg/rat). Shown are means of cumulative score/rat±s.d. from 5 (HC) or 8 rats (other conditions). (C) Evolution of arthritis severity scores of adjuvant-induced arthritis (AIA) in rats treated with intracutaneous p30A or pCtl (100 mg/rat) or hydrocortisone (after the onset of clinical signs as illustrated by arrows (means from 8 rats, s.e.m.<20%). (D) Histopathologic analysis confirm p30A ability to decrease all components of AIA lesions: pannus formation and inflammation of the synovium (P), deformity of joint and bones (asterix), bone remodeling and destruction (arrowhead), bone neoformation (arrows) and cartilage destruction.
All animal procedures were performed in strict accordance with the guidelines issued by the European Economic Community “86/609”. Female Lewis rats (Janvier, Le Genest St Isle, France) were housed under standard laboratory conditions with free access to food and water. The temperature was kept at 22±2°C and a 12 hour light/dark schedule was maintained.
Adjuvant arthritis was induced in six week-old animals by subcutaneous injection at the base of the tail of 300 µl containing 1.8 mg of inactivated Mycobacterium butyricum (Difco Laboratories, Detroit, MI) diluted in emulsion of 8 ml Vaseline, 1 ml polysorbate 80, and 1 ml PBS (Phosphate Buffer Saline, Eurobio). Rats were boosted one week later following the same procedure. Observation was conducted for up to 50 days following immunization for clinical signs of arthritis. Rats were divided in different groups of 8 rats. Groups were treated with five injections (every 2 days) of either p30A (10, 50 or 100 mg in a PBS solution), pCtl, hydrocortisone (Sigma Aldrich) or PBS solution. Injections were initiated two days after the appearance of first arthritic symptoms (therapeutic) or on the first day of immunization (preventive). Evaluation of AIA severity was performed by two independent observers who where not aware of the study protocol. The severity of AIA in each paw was quantified daily using an ordinal clinical score measurement from 0 to 4 as follows: no signs of inflammation ( = 0); swelling alone (>2 fold paw diameter) ( = 1) or swelling/immobility ( = 2) of one paw; swelling ( = 3) or swelling/immobility ( = 4) of two paws. Weight evolution of rats was measured daily. Rats were sacrificed 50 days after AIA induction. Peritoneal macrophages were collected and incubated in culture medium alone for 48 h. Quantification of TNF-α and IL-1β in rat cell supernatants was performed using appropriate ELISA kits and according to manufacturer's recommendations (Biosource, Montrouge, France).

In a further assay the test system is asthma. The conditions noted are these: Phase I; cited from earlier work. From the text: CD23 was also directly triggered by specific antibodies as therapeutic approach.

Take `CC(=N)NCCCC[C@H](N)C(=O)O.Cl.Cl` [L-NIL, N(6)-(1-iminoethyl)-L-lysine/2HCl, reference compound]: in assay [1], the “iNOS-mediated NO generation” value is “decreased”. In the assay on iNOS, the iNOS inhibition entry is “specific inhibitor of iNOS”.
As to `C[C@]12CCC(=O)C=C1CC[C@@H]1[C@@H]2[C@@H](O)C[C@@]2(C)[C@H]1CC[C@]2(O)C(=O)CO` [hydrocortisone, reference compound], the “IL-1β release ex vivo, therapeutic” value in assay [2] was “moderately decreased IL-1β levels”.
Consider SFNYNYA [pCtl, reference compound], for which, in assay [3] (ELISA, 5 donors), the IL-6 level result is “No effect” and the TNF-α level result is recorded as “No effect”. Further, in assay [3] (FlowCytomix, 2 donors), the IL-1β level entry is given as “No effect”, the IL-8 level entry is reported as “No effect” and the IL-10 level result is given as “No effect”. In assay [4], the “beneficial effect on arthritis” value is listed as “this beneficial effect was not found”. Besides, in assay [1] (CD23-McAb 20 µg/ml, 1 h pre-incubation with peptide, supernatants at 72 h, mean of 3 donors (SEM<20%)), the “NO (nitrite) generation, dose-dependence” value is listed as “no effect”. In assay [1], the “iNOS-mediated NO generation” value was “not observed”.
Consider “lumiliximab: Primate/human CD23-McAb, developed for the treatment of chronic lymphocytic leukemia”, for which the “clinical outcome, asthma” value in the assay with asthma is recorded as “promising therapy in Phase I of clinical trials for asthma”.
